Results published in patent US20120202690A1, “HERBICIDAL COMPOUNDS” (SYNGENTA LIMITED, priority 2009, published 2012).

Key:
[1] = system: Alopecurus myosuroides (ALOMY); assay: Pre-emergence biological efficacy, glasshouse, 1000 g/ha, evaluated after 13 days (100=total damage to plant; 0=no damage to plant); format: in vivo; settings: Alopecurus myosuroides, 312 h, rate 1,000 g/ha, read-out: Percentage damage caused to weed species, pre-emergence, ALOMY
In short: (§1)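 Test species are sown into pots of standard soil. Plants then grow in the glasshouse under controlled conditions (24/16° C. day/night, 14 hours light, 65% humidity) and receive water twice a day.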

[2] = system: Amaranthus retroflexus (AMARE); assay: as above; format: in vivo; settings: Amaranthus retroflexus, 312 h, rate 1,000 g/ha, read-out: Percentage damage caused to weed species, pre-emergence, AMARE
In short: as §1

[3] = system: Echinochloa crus-galli (ECHCG); assay: as above; format: in vivo; settings: Echinochloa crus-galli, 312 h, rate 1,000 g/ha, read-out: Percentage damage caused to weed species, pre-emergence, ECHCG
In short: as §1

[4] = system: Ipomoea hederaceae (IPOHE); assay: as above; format: in vivo; settings: Ipomoea, 312 h, rate 1,000 g/ha, read-out: Percentage damage caused to weed species, pre-emergence, IPOHE
In short: as §1

[5] = system: Setaria faberi (SETFA); assay: as above; format: in vivo; settings: Setaria faberi, 312 h, rate 1,000 g/ha, read-out: Percentage damage caused to weed species, pre-emergence, SETFA
In short: as §1

[6] = system: Solanum nigrum (SOLNI); assay: as above; format: in vivo; settings: Solanum nigrum, 312 h, rate 1,000 g/ha, read-out: Percentage damage caused to weed species, pre-emergence, SOLNI
In short: as §1

[7] = system: Alopecurus myosuroides (ALOMY); assay: Post-emergence biological efficacy, glasshouse, 500 or 1000 g/ha, evaluated after 13 days (100=total damage to plant; 0=no damage to plant); format: in vivo; settings: Alopecurus myosuroides, 312 h, rate 1,000 g/ha, read-out: Percentage damage caused to weed species, post-emergence, ALOMY
In short: (§2)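 Standard soil, potted from seed; post-emergence treatment; glasshouse 24/16° C. (day/night), 14 h light, 65% humidity; watering twice daily.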

[8] = system: Amaranthus retroflexus (AMARE); assay: as above; format: in vivo; settings: Amaranthus retroflexus, 312 h, rate 1,000 g/ha, read-out: Percentage damage caused to weed species, post-emergence, AMARE
In short: as §2

[9] = system: Echinochloa crusgaffi (ECHCG); assay: as above; format: in vivo; settings: Echinochloa, 312 h, rate 1,000 g/ha, read-out: Percentage damage caused to weed species, post-emergence, ECHCG
In short: as §2

[10] = system: Ipomoea hederaceae (IPOHE); assay: as above; format: in vivo; settings: Ipomoea, 312 h, rate 1,000 g/ha, read-out: Percentage damage caused to weed species, post-emergence, IPOHE
In short: as §2

[11] = system: Setaria faberi (SETFA); assay: as above; format: in vivo; settings: Setaria faberi, 312 h, rate 1,000 g/ha, read-out: Percentage damage caused to weed species, post-emergence, SETFA
In short: as §2

[12] = system: Solanum nigrum (SOLNI); assay: as above; format: in vivo; settings: Solanum nigrum, 312 h, rate 1,000 g/ha, read-out: Percentage damage caused to weed species, post-emergence, SOLNI
In short: as §2

| melting point | Compound | pest or weed control at 1000 g/ha [1] [%] | pest or weed control at 1000 g/ha [2] [%] | pest or weed control at 1000 g/ha [3] [%] | pest or weed control at 1000 g/ha [4] [%] | pest or weed control at 1000 g/ha [5] [%] | pest or weed control at 1000 g/ha [6] [%] | pest or weed control at 1000 g/ha [7] [%] | pest or weed control at 1000 g/ha [8] [%] | pest or weed control at 1000 g/ha [9] [%] | pest or weed control at 1000 g/ha [10] [%] | pest or weed control at 1000 g/ha [11] [%] | pest or weed control at 1000 g/ha [12] [%] |
| --- | --- | --- | --- | --- | --- | --- | --- | --- | --- | --- | --- | --- | --- |
| 162 to 165 °C | COC(=O)c1nc(C2CC2)nc2[nH]ccc12 [Compound 1-2, 2-Cyclopropyl-4-methoxycarbonyl-7H-pyrrolo[2,3-d]pyrimidine] | 0 | 30 | 0 | 20 | 0 | 50 | 10 | 90 | 70 | 100 | 90 | 90 |
| 112 to 114 °C (dec.) | CCOCn1cc(C)c2c(C(=O)O)nc(-c3ccc(Cl)c(OC)c3F)nc21 [Compound 3-63, 4-carboxy-2-(4-chloro-2-fluoro-3-methoxyphenyl)-7-ethoxymethyl-5-methyl-7H-pyrrolo[2,3-d]pyrimidine] | 0 | 100 | 0 | 20 | 0 | 50 | 0 | 80 | 10 | 60 | 10 | 80 |
| 107 to 108 °C | CCOCn1cc(C)c2c(C(=O)OC)nc(-c3ccc(Cl)c(OC)c3F)nc21 [Compound 3-64, 2-(4-chloro-2-fluoro-3-methoxyphenyl)-7-ethoxymethyl-4-methoxycarbonyl-5-methyl-7H-pyrrolo[2,3-d]pyrimidine] | 0 | 0 | 0 | 0 | 0 | 0 | 0 | 10 | 0 | 70 | 0 | 40 |
| 97 °C | COC(=O)c1nc(-c2ccc(Cl)c(OC)c2F)nc2c1N(C)CCN2C [Compound 92-164, 2-(4-chloro-2-fluoro-3-methoxyphenyl)-5,8-dimethyl-4-methoxycarbonyl-5,6,7,8-tetrahydropteridine] | 0 | 0 | 0 | 0 | 0 | 0 | 0 | 0 | 0 | 0 | 0 | 10 |
| – | COc1c(Cl)ccc(-c2nc(C(=O)O)c3c(n2)N(C(C)C)CCN3C(C)C)c1F [Compound 93-165, 4-Carboxy-2-(4-chloro-2-fluoro-3-methoxyphenyl)-5,8-diisopropyl-5,6,7,8-tetrahydropteridine] | 0 | 0 | 0 | 10 | 0 | 0 | 10 | 20 | 20 | 20 | 30 | 30 |
| 135 °C | COC(=O)c1nc(-c2ccc(Cl)c(OC)c2F)nc2c1N(C(C)C)CCN2C(C)C [Compound 93-166, 2-(4-Chloro-2-fluoro-3-methoxyphenyl)-5,8-diisopropyl-4-methoxy-carbonyl-5,6,7,8-tetrahydropteridine] | 0 | 0 | 0 | 0 | 0 | 0 | 20 | 0 | 10 | 10 | 30 | 10 |
| – | COC(=O)c1nc(-c2ccc(Cl)c(OC)c2F)nc2c1NCCN2Cc1ccccc1 [Compound 95-162, 8-benzyl-2-(4-chloro-2-fluoro-3-methoxyphenyl)-4-methoxycarbonyl-5,6,7,8-tetrahydropteridine] | 10 | 0 | 0 | 40 | 0 | 0 | 10 | 70 | 0 | 30 | 0 | 40 |
| – | COC(=O)c1nc(-c2ccc(Cl)c(OC)c2F)nc2c1OCCN2C [Compound 106-74, 2-(4-Chloro-2-fluoro-3-methoxyphenyl)-4-methoxycarbonyl-8-methyl-7,8-dihydro-6H-pyrimido[5,4-b][1,4]oxazine] | 0 | 0 | 0 | 0 | 0 | 0 | 0 | 0 | 0 | 0 | 0 | 0 |
| – | COC(=O)c1nc(-c2ccc(Cl)c(OC)c2F)nc2c1Nc1ccccc1N2 [Compound 119-168, 2-(4-chloro-2-fluoro-3-methoxyphenyl)-4-methoxycarbonyl-5,10-dihydro-benzo[g]pteridine] | 0 | 0 | 0 | 0 | 0 | 0 | 0 | 10 | 0 | 40 | 0 | 30 |
| – | COC(=O)c1nc(-c2ccc(Cl)c(OC)c2F)nc2nc3ccccc3nc12 [Compound 125-76, 2-(4-chloro-2-fluoro-3-methoxyphenyl)-4-methoxycarbonyl-benzo[g]pteridine] | 10 | 80 | 20 | 60 | 20 | 70 | 10 | 100 | 70 | 80 | 80 | 90 |
